Measurements: BindingDB's records for doi:10.1016/j.bmcl.2016.06.076 (Leiden University, 2016)

Biological target: T1, Diacylglycerol lipase-alpha (Homo sapiens, UniProt Q9Y4D2)
T1 sequence (Q9Y4D2 whole entry): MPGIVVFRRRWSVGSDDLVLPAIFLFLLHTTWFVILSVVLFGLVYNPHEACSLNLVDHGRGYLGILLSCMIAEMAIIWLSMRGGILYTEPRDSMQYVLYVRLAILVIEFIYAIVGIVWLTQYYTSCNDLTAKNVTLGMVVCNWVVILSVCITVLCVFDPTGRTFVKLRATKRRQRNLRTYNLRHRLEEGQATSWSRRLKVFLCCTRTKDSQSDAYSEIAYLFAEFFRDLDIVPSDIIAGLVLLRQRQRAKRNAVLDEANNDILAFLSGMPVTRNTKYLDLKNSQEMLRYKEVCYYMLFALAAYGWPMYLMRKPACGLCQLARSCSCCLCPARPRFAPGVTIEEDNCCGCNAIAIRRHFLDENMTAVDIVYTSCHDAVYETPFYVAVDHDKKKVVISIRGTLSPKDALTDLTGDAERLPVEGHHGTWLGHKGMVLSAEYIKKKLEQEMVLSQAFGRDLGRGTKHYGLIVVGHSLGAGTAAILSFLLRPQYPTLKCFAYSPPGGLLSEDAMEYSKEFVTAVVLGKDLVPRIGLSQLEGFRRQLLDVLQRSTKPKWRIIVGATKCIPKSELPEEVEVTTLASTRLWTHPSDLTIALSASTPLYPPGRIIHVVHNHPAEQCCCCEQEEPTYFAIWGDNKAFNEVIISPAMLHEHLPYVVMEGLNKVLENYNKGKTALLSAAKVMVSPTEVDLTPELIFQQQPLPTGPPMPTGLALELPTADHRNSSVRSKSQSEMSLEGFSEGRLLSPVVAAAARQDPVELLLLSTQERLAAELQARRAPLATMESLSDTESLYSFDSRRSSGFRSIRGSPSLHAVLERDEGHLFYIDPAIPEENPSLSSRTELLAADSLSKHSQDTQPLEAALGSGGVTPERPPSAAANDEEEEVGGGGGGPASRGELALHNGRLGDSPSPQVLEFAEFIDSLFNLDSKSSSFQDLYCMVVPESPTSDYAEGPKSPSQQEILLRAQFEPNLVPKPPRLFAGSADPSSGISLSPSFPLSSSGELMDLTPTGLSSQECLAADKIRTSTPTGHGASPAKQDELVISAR
Assay: Inhibition of human DAGLalpha expressed in HEK293T cell membrane fractions using PNP butyrate as substrate preincubated for 20 mins followed by substrate addition by colorimetric surrogate substrate assay

IC50: 40 nM
Compound: O=C(CCCCCc1ccccc1)c1nc2ncccc2o1 [1-(oxazolo[4,5-b]pyridin-2-yl)-6-phenylhexan-1-one]
